For seven compounds, EC50 and MIC90 results are on record in ChEMBL document CHEMBL1821658, “Synthesis, antimicrobial evaluation and QSAR analysis of novel nalidixic acid based 1,2,4-triazole derivatives” (2011).

Type in all cases: functional
Experiment [1] relates to Fusarium oxysporum. Briefly: Antifungal activity against Fusarium oxysporum by food poison technique. To be noted: read-out: ED50 (the source's name).
Experiment [2] relates to Bacillus subtilis. Briefly: Antibacterial activity against Bacillus subtilis ATCC 12711 after 24 hrs by broth micro dilution assay. To be noted: ATCC 12711, 24 h.
Experiment [3] relates to Pseudomonas aeruginosa. As to the kind of experiment: Antibacterial activity against Pseudomonas aeruginosa ATCC 9027 after 24 hrs by broth micro dilution assay. The settings on record: ATCC 9027, 24 h.
Experiment [4] relates to Klebsiella pneumoniae. As to the kind of experiment: Antibacterial activity against Klebsiella pneumoniae ATCC 31488 after 24 hrs by broth micro dilution assay. The settings on record: ATCC 31488, 24 h.
For experiment [5], the system named is Staphylococcus aureus. As to the kind of experiment: Antibacterial activity against Staphylococcus aureus ATCC 2937 after 24 hrs by broth micro dilution assay. To be noted: ATCC 2937, 24 h.
For experiment [6], the system named is Aspergillus niger. Briefly: Antifungal activity against Aspergillus niger by food poison technique. To be noted: read-out: ED50 (the source's name).
The subject of experiment [7] is Escherichia coli. As to the kind of experiment: Antibacterial activity against Escherichia coli ATCC 8739 after 24 hrs by broth micro dilution assay. The settings on record: ATCC 8739, 24 h.

≈ marks a conversion by molar mass, not a printed value.

On to `CCn1cc(-c2nnc3sc(-c4ccc(Cl)cc4)nn23)c(=O)c2ccc(C)nc21`, for which the EC50 came out at 121 µg/mL (≈ 287 µM) in experiment [1] and 514 µg/mL (≈ 1210 µM) in experiment [6]. In addition, the MIC90 in experiment [2] worked out at 63 µg/mL (≈ 149 µM); in experiment [3], 125 µg/mL (≈ 296 µM); in experiment [4], 125 µg/mL (≈ 296 µM); in experiment [5] it was 63 µg/mL (≈ 149 µM); in experiment [7] it was 63 µg/mL (≈ 149 µM).
Regarding `CCn1cc(-c2nnc3n2N=C(c2ccccc2)CS3)c(=O)c2ccc(C)nc21`, the EC50 in experiment [1] was 144 µg/mL (≈ 359 µM); in experiment [6], 148 µg/mL (≈ 369 µM). Further, the MIC90 was 125 µg/mL (≈ 311 µM) in experiment [2]; 125 µg/mL (≈ 311 µM) in experiment [3]; 63 µg/mL (≈ 157 µM) in experiment [4]; 63 µg/mL (≈ 157 µM) in experiment [5]; 125 µg/mL (≈ 311 µM) in experiment [7].
As for `CCn1cc(-c2nnc(S)n2/N=C/c2ccc(F)cc2)c(=O)c2ccc(C)nc21`, the EC50 in experiment [1] worked out at 163 µg/mL (≈ 400 µM); in experiment [6] it was 134 µg/mL (≈ 327 µM). In addition, the MIC90 came out at 63 µg/mL (≈ 154 µM) in experiment [2]; 16 µg/mL (≈ 39.2 µM) in experiment [3]; 250 µg/mL (≈ 612 µM) in experiment [4]; 125 µg/mL (≈ 306 µM) in experiment [5]; 250 µg/mL (≈ 612 µM) in experiment [7].
Turning to `CCn1cc(-c2nnc(S)n2/N=C/c2ccc(Cl)cc2Cl)c(=O)c2ccc(C)nc21`, the EC50 turned out to be 103 µg/mL (≈ 224 µM) in experiment [1] and 502 µg/mL (≈ 1090 µM) in experiment [6]. Further, the MIC90 in experiment [2] stood at 125 µg/mL (≈ 272 µM); in experiment [3], 63 µg/mL (≈ 137 µM); in experiment [4] it was 250 µg/mL (≈ 544 µM); in experiment [5], 125 µg/mL (≈ 272 µM); in experiment [7], 250 µg/mL (≈ 544 µM).
As to `CCn1cc(-c2nnc3sc(-c4cccc(Cl)c4Cl)nn23)c(=O)c2ccc(C)nc21`, the results for the EC50 in experiment [1] and in experiment [6] were 96.9 µg/mL (≈ 212 µM) and 109 µg/mL (≈ 239 µM), respectively. The MIC90 in experiment [2] stood at 63 µg/mL (≈ 138 µM); in experiment [3], 63 µg/mL (≈ 138 µM); in experiment [4], 63 µg/mL (≈ 138 µM); in experiment [5], 125 µg/mL (≈ 273 µM); in experiment [7], 31 µg/mL (≈ 67.8 µM).
For `CCn1cc(-c2nnc(S)n2/N=C/c2c(Cl)cccc2Cl)c(=O)c2ccc(C)nc21`, the EC50 came to 112 µg/mL (≈ 245 µM) in experiment [1] and 101 µg/mL (≈ 221 µM) in experiment [6]. Further, the MIC90 in experiment [2] turned out to be 31 µg/mL (≈ 67.5 µM); in experiment [3] it was 63 µg/mL (≈ 137 µM); in experiment [4], 125 µg/mL (≈ 272 µM); in experiment [5] it was 125 µg/mL (≈ 272 µM); in experiment [7], 16 µg/mL (≈ 34.8 µM).
As for `CCn1cc(-c2nnc(S)n2/N=C/c2ccc(O)cc2)c(=O)c2ccc(C)nc21`, the EC50 in experiment [1] stood at 203 µg/mL (≈ 500 µM); in experiment [6] it was 549 µg/mL (≈ 1350 µM). Moreover, the MIC90 in experiment [2] was found to be 125 µg/mL (≈ 308 µM); in experiment [3], 63 µg/mL (≈ 155 µM); in experiment [4] it was 125 µg/mL (≈ 308 µM); in experiment [5], 125 µg/mL (≈ 308 µM); in experiment [7] it was 125 µg/mL (≈ 308 µM).
